Test results published in patent US20230255972A1, “PYRIMIDINE COMPOUND-CONTAINING COMBINATION TO BE USED IN TUMOR TREATMENT” (TAIHO PHARMACEUTICAL CO., LTD., priority 2020, published 2023).

Legend:
[1] = tested on: NCI-N87-Luc; assay: Antitumor effect (in vivo) on direct brain transplantation models of NCI-N87-luc; parameters: species or system nude mouse; conditions: 25 mg/kg/day po once a day, Days 1-21
From the text: Test Example 11 Antitumor Effect Confirmation Test (In Vivo) on Direct Brain Transplantation Models, into which Luciferase Gene-Introduced HER2 Expressing Cell Line (NCI-N87-luc) is Directly Transplanted
In order to confirm the antitumor effects of a test compound on direct brain transplantation models, NCI-N87-Luc, which was obtained by introducing a Luciferase gene into NCI-N87 that was a human stomach cancer tumor cell line purchased from American Type Culture Collection, was used.
The NCI-N87-Luc cells were re-suspended in PBS in a concentration of 6.25×10^7 cells/mL.
A microdrill was used to drill a hole in the skull, and then, using a needle, a manipulator, and a syringe pump, 4 μL of the cell suspension was transplanted into the brain at a rate of 0.8 μL/min.
As a reference of the amount of brain tumor, approximately 3 weeks after the transplantation, Total Flux (Photon/sec) was measured in all of the survival cases, using IVIS (PerkinElmer, Inc., model: Lumina II). Based on the obtained results, 6 animals were assigned to each group, using the grouping program of MiSTAT (Ver. 2.00).
The test compound was orally administered to the mice once a day, every day, for 21 days from the following day of the grouping (Days 1-21). […]
The value obtained by logarithmic transformation (Log 10) of the total flux on Day 22 in each group was analyzed by a Dunnett's test or a Student-t test. […]

[2] = tested on: MCF10A_EGFR cells; assay: Growth inhibitory activity against MCF10A_EGFR (EGFR-WT); format: cell-based; conditions: Homo sapiens, 72 h; 3 days; read-out: Cell growth inhibitory activity GI 50 value, MCF10A_EGFR cell (EGFR-WT)
Protocol: Test Example 7 Measurement of Growth Inhibitory Activity Against EGFR Overexpressing Cell Line and Exon 20 Insertion Mutant EGFR Expressing Cell Line
Growth inhibitory activity against an EGFR overexpressing cell line and an exon 20 insertion mutant EGFR expressing cell line was evaluated using MDA-MB-468 cells (ATCC) as an EGFR overexpressing human breast cancer cell line; NCI-H1975 cells (ATCC) as L858R and T790M mutant EGFR-positive human lung cancer cells; and MCF10A_EGFR cells, MCF10A_EGFR/V769_D770insASV cells, MCF10A_EGFR/D770_N771insSVD cells, and MCF10A_EGFR/H773_V774insNPH cells (Fukushima Medical University) which were cells obtained by introducing the EGFR gene (WT, […], D770_N771insSVD mutant, H773_V774insNPH mutant) into MCF10A cells as human normal mammary gland cells.
The MDA-MB-468 cells were suspended in Leibovitz's L-15 medium containing 10% inactivated fetal bovine serum. The NCI-H1975 cells were suspended in RPMI-1640 medium containing 10% inactivated fetal bovine serum. The MCF10A_EGFR cells, the MCF10A_EGFR/V769_D770insASV cells, the MCF10A_EGFR/D770_N771insSVD cells, or the MCF10A_EGFR/H773_V774insNPH cells were suspended in DMEM/Ham's F-12 medium (containing L-glutamine, phenol red, HEPES, and sodium pyruvate) containing 10 μg/mL insulin, 500 ng/mL hydrocortisone, 5 μmol/L forskolin, and 5% inactivated horse serum in terms of their final concentrations. Each cell suspension was seeded in each well of a 96-well flat-bottom plate such that the number of cells per well was 500, and was then cultured in a carbon dioxide gas-free culture vessel for the MDA-MB-468 cells and in a 5% carbon dioxide gas-containing culture vessel for the other cells at 37° C. for 1 day. The pyrimidine compound of the present invention was prepared at 1 mM in DMSO and then diluted 1/200 with a medium to prepare a 5 μM solution. […]
The cells at the start of the culture (day 0) and after the culture (day 3) were counted using CellTiter-Glo(R) 2.0 Reagent (Promega Corp.) according to the protocol recommended by the manufacturer. […]

[3] = target: T1, EGFR [L858R] (Homo sapiens, UniProt P00533, L858R); assay: Phosphorylation activity inhibitory effect (in vitro) on mutant EGFR L858R; format: biochemical
T1 construct: purchased Carna Biosciences, Inc
T1 sequence (P00533 25-1210 L858R): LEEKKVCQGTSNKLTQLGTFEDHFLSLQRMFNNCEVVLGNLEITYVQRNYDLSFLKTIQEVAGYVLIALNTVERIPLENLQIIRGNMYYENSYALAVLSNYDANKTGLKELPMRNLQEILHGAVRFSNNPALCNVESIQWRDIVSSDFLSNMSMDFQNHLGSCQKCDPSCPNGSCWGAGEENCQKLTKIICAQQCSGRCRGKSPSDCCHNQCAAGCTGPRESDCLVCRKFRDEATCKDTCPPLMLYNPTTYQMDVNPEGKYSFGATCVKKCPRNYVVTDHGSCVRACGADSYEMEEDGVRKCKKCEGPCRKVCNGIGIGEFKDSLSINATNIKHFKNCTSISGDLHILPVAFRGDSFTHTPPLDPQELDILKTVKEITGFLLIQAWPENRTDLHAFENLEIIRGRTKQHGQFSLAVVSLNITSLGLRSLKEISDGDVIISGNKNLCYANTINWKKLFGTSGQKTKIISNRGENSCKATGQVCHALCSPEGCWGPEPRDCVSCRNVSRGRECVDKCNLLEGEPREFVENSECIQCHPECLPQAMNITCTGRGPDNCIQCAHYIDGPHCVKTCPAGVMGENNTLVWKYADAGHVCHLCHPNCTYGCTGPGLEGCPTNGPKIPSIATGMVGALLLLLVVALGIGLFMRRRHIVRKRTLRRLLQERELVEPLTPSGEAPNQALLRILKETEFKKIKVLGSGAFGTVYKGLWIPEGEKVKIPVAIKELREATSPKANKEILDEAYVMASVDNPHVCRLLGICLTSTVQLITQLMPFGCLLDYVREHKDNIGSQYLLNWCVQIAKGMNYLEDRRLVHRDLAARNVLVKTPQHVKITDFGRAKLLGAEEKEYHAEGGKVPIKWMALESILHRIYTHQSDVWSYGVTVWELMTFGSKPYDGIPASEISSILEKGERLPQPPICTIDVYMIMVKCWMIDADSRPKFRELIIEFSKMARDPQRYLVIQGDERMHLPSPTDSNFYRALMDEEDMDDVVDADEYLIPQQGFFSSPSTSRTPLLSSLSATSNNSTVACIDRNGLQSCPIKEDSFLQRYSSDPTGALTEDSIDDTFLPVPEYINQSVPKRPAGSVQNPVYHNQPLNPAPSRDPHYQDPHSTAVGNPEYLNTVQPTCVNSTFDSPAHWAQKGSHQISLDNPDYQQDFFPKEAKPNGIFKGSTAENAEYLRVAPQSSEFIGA
Protocol: (§1) Test Example 6 Measurement of Phosphorylation Activity Inhibitory Effect (In Vitro) on Wild-Type and Mutant EGFR
(§2) The measurement of the in vitro inhibitory activity of a compound against wild-type and mutant EGFR was outsourced to Carna Biosciences, Inc. (Kinase Profiling Book, https://www.carnabio.com/japanese/product/search.cgi?mode=profiling).
(§3) Specifically, first, the pyrimidine compound of the present invention was diluted stepwise with dimethyl sulfoxide (DMSO). […] To the reaction solution, Termination Buffer was added, so as to terminate the kinase reaction. Finally, using LabChip™ EZ Reader II (PerkinElmer), an unphosphorylated substrate peptide (S) and a phosphorylated peptide (P) were separated and detected according to microchannel capillary electrophoresis.
(§4) As the pyrimidine compound of the present invention, the compound of Example 11 (Example compound 11) was used.

[4] = target: T2, EGFR (Homo sapiens, UniProt P00533); assay: Phosphorylation activity inhibitory effect (in vitro) on wild-type EGFR; format: biochemical
T2 construct: purchased Carna Biosciences, Inc
T2 sequence (P00533 25-1210): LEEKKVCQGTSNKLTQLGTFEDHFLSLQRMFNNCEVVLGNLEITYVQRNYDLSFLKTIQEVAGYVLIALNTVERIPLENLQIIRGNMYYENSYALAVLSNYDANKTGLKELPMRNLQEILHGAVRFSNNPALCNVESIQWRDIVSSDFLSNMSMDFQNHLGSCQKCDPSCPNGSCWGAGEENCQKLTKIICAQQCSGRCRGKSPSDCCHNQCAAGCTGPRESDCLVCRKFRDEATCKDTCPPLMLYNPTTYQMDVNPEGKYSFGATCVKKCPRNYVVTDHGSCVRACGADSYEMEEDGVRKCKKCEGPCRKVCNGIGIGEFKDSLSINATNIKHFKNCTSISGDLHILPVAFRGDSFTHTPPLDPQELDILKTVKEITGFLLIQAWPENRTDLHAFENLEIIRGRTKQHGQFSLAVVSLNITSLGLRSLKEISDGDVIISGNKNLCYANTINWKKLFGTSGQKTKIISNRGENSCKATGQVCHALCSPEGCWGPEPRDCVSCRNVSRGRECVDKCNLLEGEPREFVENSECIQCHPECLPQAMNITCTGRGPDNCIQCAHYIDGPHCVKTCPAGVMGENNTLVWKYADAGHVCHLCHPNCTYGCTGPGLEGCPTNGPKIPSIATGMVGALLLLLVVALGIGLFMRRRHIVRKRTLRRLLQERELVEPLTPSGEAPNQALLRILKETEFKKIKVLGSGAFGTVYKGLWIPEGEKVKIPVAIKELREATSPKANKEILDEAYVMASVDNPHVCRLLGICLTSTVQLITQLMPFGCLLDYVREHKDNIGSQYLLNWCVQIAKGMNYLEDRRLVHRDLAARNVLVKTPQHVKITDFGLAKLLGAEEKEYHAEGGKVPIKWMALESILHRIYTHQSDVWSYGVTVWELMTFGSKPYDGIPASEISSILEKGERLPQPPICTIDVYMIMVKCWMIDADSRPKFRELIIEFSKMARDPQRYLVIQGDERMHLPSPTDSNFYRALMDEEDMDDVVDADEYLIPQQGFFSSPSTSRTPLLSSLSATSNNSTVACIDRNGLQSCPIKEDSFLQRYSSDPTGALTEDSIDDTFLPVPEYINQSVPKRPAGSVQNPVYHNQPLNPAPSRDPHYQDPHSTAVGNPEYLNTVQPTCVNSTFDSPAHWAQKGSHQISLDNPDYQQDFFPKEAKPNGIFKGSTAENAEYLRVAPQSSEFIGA
Protocol: as §1, §2, §3, §4

[5] = target: T3, EGFR [T790M/L858R] (Homo sapiens, UniProt P00533, L858R/T790M); assay: Phosphorylation activity inhibitory effect (in vitro) on mutant EGFR T790M/L858R; format: biochemical
T3 construct: purchased Carna Biosciences, Inc
T3 sequence (P00533 25-1210 T790M/L858R): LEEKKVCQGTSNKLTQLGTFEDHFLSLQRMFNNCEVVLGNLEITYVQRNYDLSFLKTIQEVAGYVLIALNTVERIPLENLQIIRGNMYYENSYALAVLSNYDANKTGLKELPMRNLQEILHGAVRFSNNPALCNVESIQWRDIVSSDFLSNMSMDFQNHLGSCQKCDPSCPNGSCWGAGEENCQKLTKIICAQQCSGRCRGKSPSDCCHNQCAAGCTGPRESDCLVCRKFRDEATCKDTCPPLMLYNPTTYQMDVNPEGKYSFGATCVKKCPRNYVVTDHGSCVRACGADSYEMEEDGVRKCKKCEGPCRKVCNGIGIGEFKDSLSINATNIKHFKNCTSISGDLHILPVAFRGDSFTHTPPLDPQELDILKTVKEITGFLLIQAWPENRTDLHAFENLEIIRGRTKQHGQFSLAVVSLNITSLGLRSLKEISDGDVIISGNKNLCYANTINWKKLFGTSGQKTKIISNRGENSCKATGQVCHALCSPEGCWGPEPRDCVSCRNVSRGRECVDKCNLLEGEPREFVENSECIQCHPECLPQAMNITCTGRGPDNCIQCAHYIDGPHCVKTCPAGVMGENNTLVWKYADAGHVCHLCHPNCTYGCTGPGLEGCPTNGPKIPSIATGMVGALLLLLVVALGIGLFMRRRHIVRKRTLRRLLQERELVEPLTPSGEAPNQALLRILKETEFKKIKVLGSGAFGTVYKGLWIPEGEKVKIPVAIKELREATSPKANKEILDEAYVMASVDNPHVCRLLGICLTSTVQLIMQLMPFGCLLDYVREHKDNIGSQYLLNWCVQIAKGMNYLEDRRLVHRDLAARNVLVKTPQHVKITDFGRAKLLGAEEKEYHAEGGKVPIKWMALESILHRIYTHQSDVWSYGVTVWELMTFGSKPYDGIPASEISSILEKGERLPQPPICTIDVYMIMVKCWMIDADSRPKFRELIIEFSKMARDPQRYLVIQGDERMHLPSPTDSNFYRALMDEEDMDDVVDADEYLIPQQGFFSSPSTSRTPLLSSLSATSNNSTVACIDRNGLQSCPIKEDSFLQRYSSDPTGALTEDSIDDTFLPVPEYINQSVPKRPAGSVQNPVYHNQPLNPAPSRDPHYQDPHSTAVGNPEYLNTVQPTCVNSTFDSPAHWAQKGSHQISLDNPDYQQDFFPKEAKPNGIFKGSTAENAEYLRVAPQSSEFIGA
Protocol: as §1, §2, §3, §4

[6] = target: T4, EGFR [d746-750] (Homo sapiens, UniProt P00533, DEL746-750); assay: Phosphorylation activity inhibitory effect (in vitro) on mutant EGFR d746-750; format: biochemical
T4 construct: purchased Carna Biosciences, Inc
T4 sequence (P00533 with tags, fused parts or gaps DEL746-750): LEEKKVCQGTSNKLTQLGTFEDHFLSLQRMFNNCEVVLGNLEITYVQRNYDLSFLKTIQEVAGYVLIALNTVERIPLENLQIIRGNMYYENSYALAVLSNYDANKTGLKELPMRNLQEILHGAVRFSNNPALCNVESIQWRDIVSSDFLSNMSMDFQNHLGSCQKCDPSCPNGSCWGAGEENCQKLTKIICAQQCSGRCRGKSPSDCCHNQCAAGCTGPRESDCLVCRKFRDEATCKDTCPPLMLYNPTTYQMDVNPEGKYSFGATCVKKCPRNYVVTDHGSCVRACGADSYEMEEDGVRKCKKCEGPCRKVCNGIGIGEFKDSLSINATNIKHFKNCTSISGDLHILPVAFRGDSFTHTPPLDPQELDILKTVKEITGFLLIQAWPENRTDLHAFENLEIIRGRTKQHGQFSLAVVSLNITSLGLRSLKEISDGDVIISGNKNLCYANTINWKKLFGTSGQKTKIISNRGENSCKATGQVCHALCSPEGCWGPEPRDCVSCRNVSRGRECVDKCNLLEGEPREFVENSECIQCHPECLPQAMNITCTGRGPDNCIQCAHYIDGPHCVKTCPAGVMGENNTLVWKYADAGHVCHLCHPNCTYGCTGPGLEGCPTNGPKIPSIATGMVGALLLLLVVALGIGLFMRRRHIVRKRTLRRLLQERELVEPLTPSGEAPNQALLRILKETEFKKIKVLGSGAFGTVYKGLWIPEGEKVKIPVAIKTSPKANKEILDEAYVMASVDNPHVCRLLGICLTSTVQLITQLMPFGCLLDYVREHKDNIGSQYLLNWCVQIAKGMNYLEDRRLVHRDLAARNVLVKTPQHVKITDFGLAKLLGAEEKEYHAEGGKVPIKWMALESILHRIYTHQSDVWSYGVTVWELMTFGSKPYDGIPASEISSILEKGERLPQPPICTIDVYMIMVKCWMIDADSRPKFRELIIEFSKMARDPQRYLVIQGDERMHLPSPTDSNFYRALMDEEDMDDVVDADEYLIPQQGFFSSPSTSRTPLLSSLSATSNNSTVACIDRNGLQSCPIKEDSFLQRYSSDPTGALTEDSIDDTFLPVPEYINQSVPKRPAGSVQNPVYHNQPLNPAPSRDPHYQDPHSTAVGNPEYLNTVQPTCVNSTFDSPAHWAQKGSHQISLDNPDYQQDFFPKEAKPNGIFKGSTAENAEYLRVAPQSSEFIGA
Protocol: as §1, §2, §3, §4

| SMILES | body weight reduction of −20% or more [1] | GI50 [2] [nM] | IC50 [3] [nM] | IC50 [4] [nM] | IC50 [5] [nM] | IC50 [6] [nM] |
| --- | --- | --- | --- | --- | --- | --- |
| C=CC(=O)N1C[C@H](n2c(C#CC)c(C(=O)N[C@H](C)c3ccccc3)c3c(N)ncnc32)C[C@@H]1C [Example 2, 7-((3R,5S)-1-acryloyl-5-methylpyrrolidin-3-yl)-4-amino-N—((R)-1-phenylethyl)-6-(prop-1-yn-1-yl)-7H-pyrrolo[2,3-d]pyrimidine-5-carboxamide] | not observed | 55 |  |  |  |  |
| C=CC(=O)N1C[C@H](n2c(C#CC3CC3)c(C(=O)N[C@H](C)c3ccccc3)c3c(N)ncnc32)C[C@@H]1C [Example 11, 7-((3R,5S)-1-acryloyl-5-methylpyrrolidin-3-yl)-4-amino-6-(cyclopropylethynyl)-N—((R)-1-phenylethyl)-7H-pyrrolo[2,3-d]pyrimidine-5-carboxamide] | not observed | 81 | 0.36 | 0.47 | 6.6 | 0.25 |
| C=CC(=O)N1C[C@H](n2c(C#CC(C)(C)C)c(C(=O)N[C@H](C)c3ccccc3)c3c(N)ncnc32)C[C@@H]1C [Example 12, 7-((3R,5S)-1-acryloyl-5-methylpyrrolidin-3-yl)-4-amino-6-(3,3-dimethylbut-1-yn-1-yl)-N—((R)-1-phenylethyl)-7H-pyrrolo[2,3-d]pyrimidine-5-carboxamide] |  | 206 |  |  |  |  |
